Reference: patent publication US8802597B2, “Herbicidal pyrimidines” (E I du Pont de Nemours and Company, priority 2003, dated 2014)

Key:
Assay in all cases: Test C pre/postemergence
Type in all cases: in vivo
[1] = tested on: common (oilseed) sunflower (Helianthus annuus); conditions: Preemergence
Procedure, shortened: (§1)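 Visual injury ratings, 0 (no effect) to 100 (complete control), made 12 to 14 days after treatment by comparison with untreated controls. Greenhouse plants received test chemical in a surfactant-containing non-phytotoxic solvent, either preemergence on planted seeds or postemergence at the 1- to 4-leaf stage.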

[2] = tested on: eastern black nightshade (Solanum ptycanthum); conditions: Preemergence
Procedure, shortened: as §1

[3] = tested on: morningglory (Ipomoea coccinea); conditions: Preemergence, scale 0 to 100
Procedure, shortened: as §1

[4] = tested on: johnsongrass (Sorghum halepense); conditions: Preemergence
Procedure, shortened: as §1

[5] = tested on: woolly cupgrass (Eriochloa villosa); conditions: Preemergence
Procedure, shortened: as §1

[6] = tested on: pigweed (Amaranthus retroflexus); conditions: Preemergence
Procedure, shortened: as §1

[7] = tested on: corn (Zea mays); conditions: Preemergence
Procedure, shortened: as §1

[8] = tested on: Surinam grass (Brachiaria decumbens); conditions: Preemergence, scale 0 to 100
Procedure, shortened: as §1

[9] = tested on: common ragweed (Ambrosia elatior); conditions: Preemergence
Procedure, shortened: as §1

[10] = tested on: cocklebur (Xanthium strumarium); conditions: Preemergence
Procedure, shortened: as §1

[11] = tested on: bermudagrass (Cynodon dactylon); conditions: Preemergence
Procedure, shortened: as §1

[12] = 62 g ai/ha, scale 0 to 100, 0 no effect, 100 complete control

## CCOC(=O)c1nc(C2CC2)nc(N=CN(C)C)c1Br [Compound 40]
[1]; [12]
  Plant response rating, Sunflower: 5
[1]; 125 g ai/ha, scale 0 to 100
  Plant response rating, Sunflower: 90
[1]; 250 g ai/ha, scale 0 to 100
  Plant response rating, Sunflower: 90
[1]; 500 g ai/ha, scale 0 to 100
  Plant response rating, Sunflower: 95
[2]; [12]
  Plant response rating, Nightshade: 100
[2]; 125 g ai/ha, scale 0 to 100
  Plant response rating, Nightshade: 100
[2]; 250 g ai/ha, scale 0 to 100
  Plant response rating, Nightshade: 100
[2]; 500 g ai/ha, scale 0 to 100
  Plant response rating, Nightshade: 100
[3]; 125 g ai/ha
  Plant response rating, Morningglory: 90
[3]; 250 g ai/ha
  Plant response rating, Morningglory: 90
[3]; 500 g ai/ha
  Plant response rating, Morningglory: 100
[4]; [12]
  Plant response rating, Johnsongrass: 0
[4]; 125 g ai/ha, scale 0 to 100
  Plant response rating, Johnsongrass: 80
[4]; 250 g ai/ha, scale 0 to 100
  Plant response rating, Johnsongrass: 80
[4]; 500 g ai/ha, scale 0 to 100
  Plant response rating, Johnsongrass: 95
[5]; [12]
  Plant response rating, Cupgrass, Woolly: 5
[5]; 125 g ai/ha, scale 0 to 100
  Plant response rating, Cupgrass, Woolly: 5
[5]; 250 g ai/ha, scale 0 to 100
  Plant response rating, Cupgrass, Woolly: 70
[5]; 500 g ai/ha, scale 0 to 100
  Plant response rating, Cupgrass, Woolly: 95
[6]; [12]
  Plant response rating, Pigweed: 20
[6]; 125 g ai/ha, scale 0 to 100
  Plant response rating, Pigweed: 100
[6]; 250 g ai/ha, scale 0 to 100
  Plant response rating, Pigweed: 100
[6]; 500 g ai/ha, scale 0 to 100
  Plant response rating, Pigweed: 100
[7]; [12]
  Plant response rating, Corn: 0
[7]; 125 g ai/ha, scale 0 to 100
  Plant response rating, Corn: 20
[7]; 250 g ai/ha, scale 0 to 100
  Plant response rating, Corn: 20
[7]; 500 g ai/ha, scale 0 to 100
  Plant response rating, Corn: 40
[8]; 125 g ai/ha
  Plant response rating, Surinam Grass: 0
[8]; 250 g ai/ha
  Plant response rating, Surinam Grass: 10
[8]; 500 g ai/ha
  Plant response rating, Surinam Grass: 90
[9]; [12]
  Plant response rating, Ragweed: 90
[9]; 125 g ai/ha, scale 0 to 100
  Plant response rating, Ragweed: 90
[9]; 250 g ai/ha, scale 0 to 100
  Plant response rating, Ragweed: 100
[9]; 500 g ai/ha, scale 0 to 100
  Plant response rating, Ragweed: 100
[10]; [12]
  Plant response rating, Cocklebur: 5
[10]; 125 g ai/ha, scale 0 to 100
  Plant response rating, Cocklebur: 70
[10]; 250 g ai/ha, scale 0 to 100
  Plant response rating, Cocklebur: 90
[10]; 500 g ai/ha, scale 0 to 100
  Plant response rating, Cocklebur: 100
[11]; [12]
  Plant response rating, Bermudagrass: 0
[11]; 125 g ai/ha, scale 0 to 100
  Plant response rating, Bermudagrass: 0
[11]; 250 g ai/ha, scale 0 to 100
  Plant response rating, Bermudagrass: 0
[11]; 500 g ai/ha, scale 0 to 100
  Plant response rating, Bermudagrass: 70
